Experimental findings from PubChem BioAssay AID686920 (Broad Institute, 2013) are described below.

Assay [1] is described as follows: suppressors of NR0B1-promoter luciferase reporter, dose response, EWS/Fli inhibitor project, luciferase luminescence, A673 cells, cherry-pick (AID 686920). The conditions noted are these: A673 NR0B1-luciferase reporter, viability-normalised luminescence. Background: A reporter such as luciferase makes a cellular process visible.
For assay [2], the system named is A673 NR0B1-luciferase reporter, viability-normalised luminescence. Described as above.

Activity calls are given as the source filed them.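 Rule for the calls: active = fitted curve reaching 35% inhibition at a dose no higher than twice the top valid tested dose; inconclusive = flat fit with 30 to 70% inhibition, or a poor fit; inactive = the rest, including activity in the opposite direction.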

On to `C(=C\c1ccc(C2[C@H]3CNC[C@@H]2N3Cc2ccccn2)cc1)/c1ccccc1` (some centres undefined), for which, in assay [1] (at 68 µM (top of the series)), the activity change, negative = inhibition was 32.3% (inactive).

Turning to `COc1cc(C(c2c(C)[nH][nH]c2=O)c2c(C)[nH][nH]c2=O)ccc1OC(C)C`, the activity change, negative = inhibition in assay [1] (at 21 µM (top of the series)) was 28.1% (inactive). For `O=C(Cc1nn[nH]n1)c1ccccc1O`, in assay [1] (at 68 µM (top of the series)), the activity change, negative = inhibition was 7.17% (inactive). In the case of `COc1cc(/C=N/NC(=O)c2csc3c2CCCC3)cc(OC)c1O`, the activity change, negative = inhibition in assay [1] (at 68 µM (top of the series)) is 16.3% (inactive). As for `COc1cccc(S(=O)(=O)N(C)C[C@H]2OCc3cnnn3CCCC(=O)N([C@@H](C)CO)C[C@H]2C)c1`, the activity change, negative = inhibition in assay [1] (at 68 µM (top of the series)) was -19.9% (inactive). As for `C/C=C/c1ccc([C@H]2[C@@H](CO)N3C(=O)CN(S(=O)(=O)c4cccc(F)c4)C[C@@H]23)cc1`, the activity change, negative = inhibition in assay [1] (at 68 µM (top of the series)) is -7.12% (inactive).

Consider `COCc1cc(C)nc2sc(C(=O)NCCO)c(-n3cccc3)c12`, for which the activity change, negative = inhibition in assay [1] (at 21 µM (top of the series)) was 112% (inactive).

On to `Cc1occc1-c1n[nH]c(=S)n1C`, for which, in assay [1] (at 68 µM (top of the series)), the activity change, negative = inhibition was 10.2% (inactive). For `Nc1ccn([C@@H]2O[C@H](CO)[C@@H](O)C2O)c(=O)n1` (some centres undefined), the activity change, negative = inhibition in assay [1] (at 68 µM (top of the series)) is -31.3% (inactive). As to `O=C1CCCC2=C1C(c1ccccn1)Nc1ccc(C(=O)c3ccccc3)cc1N2` (centres undefined), in assay [1] (at 21 µM (top of the series)), the activity change, negative = inhibition was 8.98% (inactive). For the compound `COc1ccc(NC(=S)N=Nc2c(O)[nH]c3ccccc23)cc1`, the activity change, negative = inhibition in assay [1] (at 68 µM (top of the series)) was 29.4% (inactive). The same measure, in the same setting: the same measure for `COC(=O)C[C@H]1CC[C@@H](NC(=O)Nc2ccc(C(F)(F)F)cc2)[C@H](CO)O1`: 16.7% (inactive); for `COc1ccccc1-c1cn(CC[C@H]2CC[C@@H](NC(=O)C3CCCC3)[C@@H](CO)O2)nn1`: -4.29% (inactive). On to `COC(=O)C[C@@H]1CC[C@@H]2[C@@H](COc3ccc(NC(=O)Nc4cccc(F)c4)cc3C(=O)N2C)O1`, for which the activity change, negative = inhibition in assay [1] (at 21 µM (top of the series)) was -4.28% (inactive). Turning to `CCOc1ccc(NC(=O)C(=O)N/N=C\c2ccc(CNS(=O)(=O)c3ccccc3)o2)cc1`, the activity change, negative = inhibition in assay [1] (at 68 µM (top of the series)) was -7.85% (inactive). As for `CCc1ccc(Cn2ncc3c(C(=O)O)cc(C)nc32)cc1`, in assay [1] (at 68 µM (top of the series)), the activity change, negative = inhibition is 13.8% (inactive). Take `COC(=O)C[C@H]1CC[C@@H]2[C@H](COc3ccc(NC(=O)Nc4cccc(Cl)c4)cc3C(=O)N2C)O1`: in assay [1] (at 68 µM (top of the series)), the activity change, negative = inhibition is 14.5% (inactive). Same read-out and setting: then `C/C(=N\N(c1ccccc1)c1ccccc1)c1ccco1`, with -1.23% (inactive); and `COC(=O)C[C@H]1C=C[C@@H](NC(=O)Nc2ccc(C(F)(F)F)cc2)[C@H](CO)O1`, with 8.17% (inactive). With `CC1(CCc2ccccc2)NC(=O)N(CC(=O)N2CC(=O)Nc3ccccc32)C1=O` (centres undefined), the activity change, negative = inhibition in assay [1] (at 68 µM (top of the series)) is 6.97% (inactive). Turning to `CCCn1nnc(NC(=S)NC(=O)C(C)(C)C)n1`, the activity change, negative = inhibition in assay [1] (at 68 µM (top of the series)) was 37.8% (inactive).

Consider `CCS(=O)(=O)N1Cc2ccccc2CC1C(=O)Nc1nnc(SCc2ccc(C#N)cc2)s1` (centres undefined), for which the activity change, negative = inhibition in assay [1] (at 68 µM (top of the series)) was -0.731% (inactive). For `COC(=O)C(CC#Cc1ccc2c(c1)[C@]1(C(=O)N2)[C@H](c2ccc(OCCO)cc2)N2[C@H](c3ccccc3)[C@H](c3ccccc3)OC(=O)[C@H]2[C@@H]1C(=O)N1CCN(c2ncccn2)CC1)C(=O)OC`, the activity change, negative = inhibition in assay [1] (at 68 µM (top of the series)) is 0.883% (inactive). With `Cc1noc(C)c1C(=O)Nc1sccc1C(N)=O`, the activity change, negative = inhibition in assay [1] (at 68 µM (top of the series)) was 20.7% (inactive). As for `CCc1c(C(=O)NN2C(=O)C3CCCCC3C2=O)csc1C` (centres undefined), in assay [1] (at 68 µM (top of the series)), the activity change, negative = inhibition is 27.7% (inactive). Turning to `COc1ccc(-c2cn(-c3ccc(OC)cc3)c3[n+]2-c2ccccc2CC3)cc1`, in assay [1] (at 68 µM (top of the series)), the activity change, negative = inhibition was -21.1% (inactive). Take `COC(=O)C[C@@H]1CC[C@@H]2[C@H](COc3ccc(NC(=O)Nc4cccc(Cl)c4)cc3C(=O)N2C)O1`: the activity change, negative = inhibition in assay [1] (at 68 µM (top of the series)) is -19.3% (inactive). As to `O=C(CNC(=O)Cc1ccccc1)N=Nc1c(O)n(Cc2ccc3c(c2)OCO3)c2ccccc12`, the activity change, negative = inhibition in assay [1] (at 68 µM (top of the series)) was -28.3% (inactive). The same measure, in the same setting: then `COc1ccc(OC)c(-c2cc(C(F)(F)F)c3c(n2)sc2c(O)cc(=O)[nH]c23)c1`, with 5.23% (inactive); and `COC(=O)C[C@@H]1CC[C@@H]2[C@H](COc3ccc(NC(=O)c4cccc(Cl)c4)cc3C(=O)N2C)O1`, with -6.57% (inactive); and `CCn1c(/C=N/NC(=O)c2ccc(OC)cc2)nc2ccccc21`, with 30.3% (inactive). As for `CN(C)C(=O)c1ccc(-c2ccccc2[C@@H]2[C@@H](CO)N(C(=O)C3CC3)[C@H]2C#N)cc1`, the activity change, negative = inhibition in assay [1] (at 68 µM (top of the series)) was -1.25% (inactive).

As to `CN(C)[C@@H]1CCC[C@@H]1OC(=O)C(c1ccccc1)c1ccccc1`, in assay [1] (at 68 µM (top of the series)), the activity change, negative = inhibition is 12.1% (inactive). Still for that read-out and setting: the same measure for `Nc1ncn([C@@H]2O[C@H](CO)[C@@H](O)[C@H]2O)c(=O)n1`: -32.1% (inactive). Regarding `CC(Oc1cccc(Cl)c1)C(=O)NCCCCc1ccccc1` (centres undefined), the activity change, negative = inhibition in assay [1] (at 68 µM (top of the series)) is 4.85% (inactive).

Turning to `Cc1ccc(N=C2NC(=O)/C(=C\c3cccs3)S2)cc1C`, the activity change, negative = inhibition in assay [1] (at 68 µM (top of the series)) was 48.8% (inactive).

In the case of `CCCCOc1ccc(NC(=O)C(=O)NCCCn2ccnc2)cc1`, the activity change, negative = inhibition in assay [1] (at 68 µM (top of the series)) was -0.492% (inactive). Regarding `O=C(Nc1cccc(Oc2ccc3c(c2)C(=O)NC3=O)c1)c1cccs1`, the activity change, negative = inhibition in assay [1] (at 68 µM (top of the series)) was -4.58% (inactive). With `N=c1ccn2c(n1)O[C@H]1[C@H](O)[C@@H](CO)O[C@H]12`, the activity change, negative = inhibition in assay [1] (at 68 µM (top of the series)) is -26.9% (inactive). Same read-out and setting: the same measure for `Cc1c(N=Cc2cc(Br)cc(Br)c2O)cccc1C(=O)O`: 14.9% (inactive); for `CCNC(=O)[C@@H]1[C@@H](CO)[C@@H]2Cn3c(ccc(C4=CCCCC4)c3=O)[C@H]1N2CC`: -2.58% (inactive); for `COC(=O)C[C@@H]1CC[C@@H]2[C@H](COc3ccc(NC(=O)Nc4cccc(C#N)c4)cc3C(=O)N2C)O1`: -24.9% (inactive). On to `CC(=O)c1ccc(N(C(=O)Cn2nnc3ccccc32)C(C(=O)NCc2ccccc2)c2ccccn2)cc1` (centres undefined), for which, in assay [1] (at 68 µM (top of the series)), the activity change, negative = inhibition was 102% (inactive). With `COC(=O)C[C@@H]1CC[C@@H]2[C@@H](COc3ccc(NC(=O)Cc4cccs4)cc3C(=O)N2C)O1`, the activity change, negative = inhibition in assay [1] (at 68 µM (top of the series)) is -27.4% (inactive). For `Cc1cc(C(=O)NNC(=O)c2ccc(S(=O)(=O)N(C)C)cc2)c(C)o1`, the activity change, negative = inhibition in assay [1] (at 68 µM (top of the series)) is 5.18% (inactive).

`COC(=O)C[C@@H]1CC[C@@H]2[C@@H](COc3ccc(NC(=O)Nc4cccc(Cl)c4)cc3C(=O)N2C)O1`: in assay [1] (at 68 µM (top of the series)), the activity change, negative = inhibition is -7.4% (inactive). As to `CN(C)C(=S)N=Nc1[nH]c2ccccc2c1O`, the activity change, negative = inhibition in assay [1] (at 68 µM (top of the series)) was 13% (inactive).

With `Cc1ccc(Cc2c(-c3ccco3)nc3c(C)cc(Br)cn23)cc1`, the activity change, negative = inhibition in assay [1] (at 21 µM (top of the series)) was 77.8% (inactive).

As to `Cc1ccccc1N=Nc1c(O)n(C)c2ccccc12`, in assay [1] (at 68 µM (top of the series)), the activity change, negative = inhibition is -31.3% (inactive). Same read-out and setting: the same measure for `COC(=O)C[C@@H]1CC[C@@H]2[C@H](COc3ccc(NC(=O)c4cc(F)cc(F)c4)cc3C(=O)N2C)O1`: -0.173% (inactive); for `COC(=O)c1c(C)[nH]c(/C=N/Nc2ccccc2)c1C`: 38.6% (inactive). Regarding `N/C(Cc1nc(-c2ccc(F)cc2)cs1)=N\O`, the activity change, negative = inhibition in assay [1] (at 68 µM (top of the series)) was 42.1% (inactive).

`CN(C)Cc1c(O)ccc2c1O/C(=C\C=C\c1ccccc1)C2=O`: the activity change, negative = inhibition in assay [1] (at 68 µM (top of the series)) is 5.05% (inactive). As for `COC(=O)C[C@H]1CC[C@H]2[C@@H](COc3ccc(NC(=O)Nc4cccc(Cl)c4)cc3C(=O)N2C)O1`, the activity change, negative = inhibition in assay [1] (at 68 µM (top of the series)) is 18.6% (inactive). As to `CCOc1ccc(OCc2ccc(C(=O)NN=Cc3ccc[nH]3)cc2)cc1`, in assay [2], the AC35 was 0.461 µM. On to `CC(C)(C)c1ccc(Oc2ccc(N)cn2)cc1`, for which the AC35 in assay [2] is 1.2 µM. For the compound `O=c1oc2cc(O)ccc2s1`, the AC35 in assay [2] was 11.8 µM. As for `CCc1nc(N)nc(N)c1-c1ccc(Cl)cc1`, the AC35 in assay [2] is 5.12 µM.

As to `CN=c1scc(-c2ccccc2F)n1/N=C/c1ccc[nH]1`, the AC35 in assay [2] was 0.194 µM. Consider `C[C@@H]1CN([C@H](C)CO)C(=O)c2cc(NC(=O)Nc3ccccc3)ccc2O[C@@H]1CN(C)Cc1ccc(C(=O)Nc2ccccc2N)cc1`, for which the AC35 in assay [2] is 8.74 µM.

Consider `CN1C(=O)c2cc(NC(=O)c3ccc(C(F)(F)F)cc3)ccc2OC[C@@H]2O[C@@H](CC(=O)NC3Cc4ccccc4C3)CC[C@H]21`, for which the AC35 in assay [2] is 8.33 µM.

Regarding `CCc1ccc(/C=C2\SC(=S)N(CCCC(=O)NC3=NCCS3)C2=O)cc1`, in assay [2], the AC35 was 0.588 µM. Same read-out and setting: the same measure for `C/C(=N\Nc1cccc2cccnc12)c1ccccn1`: 19 µM; for `COc1ccccc1N(/N=C1\Sc2ccccc2C1=O)C(C)=O`: 23.6 µM. As to `CCCc1cc(=O)oc2c3c(c4c(c12)OC(C)(C)C=C4)OC(C)C(C)C3O` (centres undefined), the AC35 in assay [2] is 33.3 µM. As for `COc1ccc(NC(=O)c2cc3ccccc3oc2=O)cc1`, the AC35 in assay [2] was 2.99 µM. As for `O=C(NC1CCCC1)N1CCCCN2[C@@H](CO)[C@@H](c3ccc(/C=C/c4ccccc4)cc3)[C@@H]2C1`, the AC35 in assay [2] is 14.3 µM.

For `C[C@H]1CN([C@@H](C)CO)S(=O)(=O)c2ccc(C#Cc3ccncc3)cc2O[C@@H]1CN(C)S(=O)(=O)c1ccccc1`, the AC35 in assay [2] is 24.4 µM. With `C[C@@H]1CN([C@@H](C)CO)C(=O)c2cc(NC(=O)c3ccccc3)ccc2O[C@@H](C)CCCCO[C@H]1CN(C)C(=O)Nc1cccc2ccccc12`, the AC35 in assay [2] was 0.873 µM. Consider `COc1ccc(NC(=O)N2CCCCN3[C@H](CO)[C@H](c4ccc(C#CCC(C)C)cc4)[C@H]3C2)cc1`, for which the AC35 in assay [2] was 9.98 µM. Take `COc1ccc(CN(C)C[C@H]2Oc3ccc(NC(=O)CCCCCC(=O)Nc4ccccc4N)cc3CC(=O)N([C@H](C)CO)C[C@H]2C)cc1`: the AC35 in assay [2] was 15.4 µM. The same measure, in the same setting: then `COc1cc(/C=N/NS(=O)(=O)c2ccc(C)cc2)ccc1OCc1cccc(C(=O)O)c1`, with 4.09 µM; and `Nc1nc(N)c2cc(Sc3ccc4ccccc4c3)ccc2n1`, with 2.1 µM; and `O=C1NC(=O)N(c2ccccc2)C(=O)/C1=C\C=C\c1ccccc1`, with 8.31 µM.
